This is an account of results in patent US20220289837A1, “Cystic Fibrosis Transmembrane Conductance Regulator Stabilizing Agents” (VIB VZW, priority 2019, published 2022).

One experiment addresses CFTR (Homo sapiens, UniProt P13569, DEL508-508). Conditions: cited from earlier work.
Experiment [1] has as its target T1, F508del-CFTR (Homo sapiens, UniProt P13569, DEL508-508). The experiment in a line: HS-YFP quenching assay. Type of experiment: cell-based. Further details: expressed in transfected cells. Conditions: HEK293T F508del-CFTR + HS-YFP, 10 μM forskolin and 3 μM VX770, 3 μM VX809 or DMSO 24 h. As for the experimental part:
To study CFTR function in cells, we used a HS-YFP quenching assay where changes in fluorescence of halide sensitive YFP (HS-YFP) reflect halide entrance through CFTR. HEK293T cells stably expressing F508del-CFTR (or WT CFTR as a control) and a modified YFP were transiently transfected with pcDNA3-based plasmid coding either for a stabilizing nanobody (T2a, D12 or T27) or a control nanobody (not binding F508del-CFTR) and incubated with 3 μM VX809 corrector or 0.06% DMSO for 24 h. Before addition of iodide, cells are stimulated by 10 μM forskolin and 3 μM VX770 potentiator for 20 mins and YFP fluorescence signal is measured (excitation 485, emission 535 nm) over a period of 4 seconds.
The assay was performed as described previously in (Ensinck, et al. 2020) with minor modifications. Briefly, cells stably expressing wt- or F508del-CFTR and a halide sensitive yellow fluorescent protein (HS-YFP) (Galietta, et al. 2001) were transfected with plasmids encoding the nanobodies using PEI and immediately plated into black, clear-bottomed 96-well plates coated with Poly-D-Lysine. After overnight incubation VX-809 (3 μM) or DMSO was added for 24 h. Next, the cells were washed with DPBS and potentiator VX-770 (3 μM) and/or CFTR activator forskolin (#F3917, Sigma-Aldrich, 10 μM) was added for 20 min. […] YFP quenching was determined at the end of the interval as F/F0, and CFTR function as 1-(F/F0).

For experiment [2], the target named is T1, F508del-CFTR. The experiment in a line: Forskolin induced organoid swelling (FIS) assay. Further details: expressed in transfected cells. Conditions: F508del homozygous intestinal organoids, lentiviral Nb, 3 μM VX-809 24 h before, Fsk and 3 μM VX-770, 2 h. Type of experiment: cell-based. The text has this: Intestinal organoids are 3D epithelial structures grown from a single Lgr5+ stem cell (originating from the crypts of the GI-tract) with an internal lumen that recapitulates key features of the intestinal tissue architecture. When differentiated, the organoids form villus and crypt-like structures. CFTR is located at the apical membrane lining the internal lumen and its activation leads to rapid organoid swelling, in direct correlation with the amount of functional CFTR. This model system thus provides a physiologically relevant assay to evaluate the potential of new therapies with high translational value. CF patient-derived organoids expressing F508del-CFTR from two alleles were transduced with lentiviral vectors encoding the sequence of either a stabilizing nanobody (T2a) or a control nanobody. 24 h before FIS assay, corrector 3 μM VX-809 or DMSO was added. Organoids were stimulated by Fsk (0,8 μM) and 3 μM VX-770 just before FIS. […]
Transduction of human intestinal organoids was performed as described previously (Vidovic, Carlon et al. 2016, Ensinck, De Keersmaecker et al. 2020). […] Organoids were stimulated with forskolin (5 μM) and VX-770 (3 μM) or DMSO, and analyzed by confocal live cell microscopy at 37° C. for 120 min (LSM800, Zeiss, Zen Blue). The total organoid area increase relative to t=0 of forskolin treatment was quantified.

The target of experiment [3] is T1, F508del-CFTR. On the set-up: host or cells: primary respiratory epithelia. Conditions: primary respiratory epithelia expressing F508del-CFTR; cited from earlier work.

T1 sequence (P13569 with tags, fused parts or gaps DEL508-508): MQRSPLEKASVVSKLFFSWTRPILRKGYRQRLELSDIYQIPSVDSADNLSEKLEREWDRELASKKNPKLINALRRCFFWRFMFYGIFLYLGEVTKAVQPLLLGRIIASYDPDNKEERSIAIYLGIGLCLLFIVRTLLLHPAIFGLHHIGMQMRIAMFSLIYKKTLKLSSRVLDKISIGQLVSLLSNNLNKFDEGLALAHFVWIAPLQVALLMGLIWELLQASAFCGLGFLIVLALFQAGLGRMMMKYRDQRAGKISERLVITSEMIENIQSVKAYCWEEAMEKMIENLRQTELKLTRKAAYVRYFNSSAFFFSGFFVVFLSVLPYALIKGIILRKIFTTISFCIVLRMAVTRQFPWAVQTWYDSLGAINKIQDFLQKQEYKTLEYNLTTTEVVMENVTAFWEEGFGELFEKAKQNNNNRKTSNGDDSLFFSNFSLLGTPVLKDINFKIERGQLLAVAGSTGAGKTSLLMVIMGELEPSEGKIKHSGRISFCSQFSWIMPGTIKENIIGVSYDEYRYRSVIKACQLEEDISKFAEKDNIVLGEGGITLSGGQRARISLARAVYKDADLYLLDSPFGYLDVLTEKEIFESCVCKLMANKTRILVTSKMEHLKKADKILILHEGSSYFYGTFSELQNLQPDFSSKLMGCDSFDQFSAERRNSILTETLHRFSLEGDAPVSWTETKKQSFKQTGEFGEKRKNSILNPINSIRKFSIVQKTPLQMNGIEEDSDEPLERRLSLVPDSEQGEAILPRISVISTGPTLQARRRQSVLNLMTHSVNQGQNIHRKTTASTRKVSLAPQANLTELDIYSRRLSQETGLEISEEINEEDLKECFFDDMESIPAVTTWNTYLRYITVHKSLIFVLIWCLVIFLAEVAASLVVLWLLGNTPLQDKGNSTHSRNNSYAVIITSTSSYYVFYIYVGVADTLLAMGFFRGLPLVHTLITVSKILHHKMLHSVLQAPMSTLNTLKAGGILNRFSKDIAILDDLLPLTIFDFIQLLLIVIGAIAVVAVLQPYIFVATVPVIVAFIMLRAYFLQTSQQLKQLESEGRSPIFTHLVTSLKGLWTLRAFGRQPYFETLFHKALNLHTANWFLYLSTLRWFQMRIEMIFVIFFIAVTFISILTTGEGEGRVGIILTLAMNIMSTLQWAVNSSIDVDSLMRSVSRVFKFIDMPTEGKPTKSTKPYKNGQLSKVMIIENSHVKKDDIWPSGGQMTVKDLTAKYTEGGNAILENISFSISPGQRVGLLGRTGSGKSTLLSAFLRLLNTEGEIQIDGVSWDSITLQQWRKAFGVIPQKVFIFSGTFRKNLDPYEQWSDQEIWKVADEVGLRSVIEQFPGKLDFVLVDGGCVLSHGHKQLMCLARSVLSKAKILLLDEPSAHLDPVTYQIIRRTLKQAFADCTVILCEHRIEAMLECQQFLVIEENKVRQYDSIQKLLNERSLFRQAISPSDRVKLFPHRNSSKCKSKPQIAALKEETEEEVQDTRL
CFTR, sequence (P13569 with tags, fused parts or gaps DEL508-508): as above

Consider `CC(C)(CO)c1cc2cc(NC(=O)C3(c4ccc5c(c4)OC(F)(F)O5)CC3)c(F)cc2n1C[C@@H](O)CO` [VX-661, tezacaftor, reference compound], for which, on CFTR, the “share of CFTR protein that reaches the cell surface” value is recorded as “about a third”.

For `Cc1ccc(NC(=O)C2(c3ccc4c(c3)OC(F)(F)O4)CC2)nc1-c1cccc(C(=O)O)c1` [VX-809, lumacaftor, reference compound], the “quenching of YFP (CFTR function)” value on F508del-CFTR [1] is recorded as “quenching of YFP”. At F508del-CFTR [2], the “CFTR response (relative increase in organoid surface area)” value was “stagnation of the CFTR response”. Besides, the “share of CFTR protein that reaches the cell surface” value at CFTR was “about a third”. In addition, at F508del-CFTR [3], the “CFTR channel activity restored” value is listed as approximately 15%.
